Results as given in ChEMBL document CHEMBL1144400 (J Med Chem, 2005).

Biological target: Coagulation factor X (Homo sapiens, UniProt P00742)
Experiment: Binding affinity for human factor Xa

Chain of Coagulation factor X (P00742 41-179 limits assumed): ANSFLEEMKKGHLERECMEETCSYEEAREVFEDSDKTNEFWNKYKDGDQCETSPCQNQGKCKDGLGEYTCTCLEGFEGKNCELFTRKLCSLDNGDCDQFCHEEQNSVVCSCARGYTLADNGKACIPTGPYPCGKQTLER
Chain of Coagulation factor X (P00742 235-488 limits assumed): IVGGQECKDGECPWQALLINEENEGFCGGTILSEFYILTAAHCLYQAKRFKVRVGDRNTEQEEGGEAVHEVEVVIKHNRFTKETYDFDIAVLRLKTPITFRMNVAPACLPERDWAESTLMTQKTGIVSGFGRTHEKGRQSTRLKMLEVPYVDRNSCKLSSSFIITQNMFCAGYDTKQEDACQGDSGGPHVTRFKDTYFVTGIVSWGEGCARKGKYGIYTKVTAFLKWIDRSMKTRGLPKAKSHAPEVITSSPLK

First: CC(C)N1CCC(NC(=O)c2cc3cccc([N+](=O)[O-])c3n2Cc2cc(-c3cc(Cl)cs3)on2)CC1
Second: CC(C)N1CCC(NC(=O)c2cc3cccc(Cl)c3n2Cc2cc(-c3ccc(Cl)s3)on2)CC1
The Ki of the first is 7-fold lower: 0.1 nM for the first, 0.7 nM for the second. The first binds more tightly here.

First: Cc1cccc2c(C#N)c(C(=O)NC3CCN(C(C)C)CC3)n(Cc3cc(-c4ccc(Cl)s4)on3)c12
Second: CC(C)N1CCC(NC(=O)c2c(C#N)c3ccccc3n2Cc2cc(-c3ccc(Cl)s3)on2)CC1
The Ki of the first is 4.3-fold lower: 0.07 nM for the first, 0.3 nM for the second. The first binds more tightly here.

Compared with `CC(C)N1CCC(NC(=O)c2cc3cc(F)ccc3n2Cc2cc(-c3ccc(Cl)s3)on2)CC1`, `CC(C)N1CCC(NC(=O)c2cc3cc(Br)ccc3n2Cc2cc(-c3ccc(Cl)s3)on2)CC1` is 3-fold higher in Ki: 3 nM for the first, 9 nM for the second.

First: Cc1cccc2c(C#N)c(C(=O)NC3CCN(C(C)C)CC3)n(CC(=O)Nc3ccc(Cl)cc3)c12
Second: Cc1cccc2cc(C(=O)NC3CCN(C(C)C)CC3)n(CC(=O)Nc3ccc(Cl)cc3)c12
The Ki of the first is 8.7-fold higher: 26 nM for the first, 3 nM for the second.

First: Cc1ccc2cc(C(=O)NC3CCN(C(C)C)CC3)n(Cc3cc(-c4ccc(Cl)s4)on3)c2c1
Second: CC(C)N1CCC(NC(=O)c2cc3c(Cl)cccc3n2Cc2cc(-c3ccc(Cl)s3)on2)CC1
The Ki of the first is 2.6-fold higher: 18 nM for the first, 7 nM for the second.

First: CC(C)N1CCC(NC(=O)c2c(C#N)c3cc(S(C)(=O)=O)ccc3n2Cc2cc(-c3ccc(Cl)s3)on2)CC1
Second: Cc1c(C(=O)NC2CCN(C(C)C)CC2)n(Cc2cc(-c3ccc(Cl)s3)on2)c2ccccc12
The Ki of the first is 2.3-fold higher: 7 nM for the first, 3 nM for the second. The second binds more tightly here.

Compared with `Cc1cccc2c1cc(C(=O)NC1CCN(C(C)C)CC1)n2CC(=O)Nc1ccc(C(=N)N)cc1`, `COc1cccc(Cn2c(C(=O)NC3CCN(C(C)C)CC3)c(C#N)c3cccc(C)c32)c1` is 16-fold higher in Ki: 25 nM for the first, 406 nM for the second. The first binds more tightly here.

Work on `Cc1ccc(C)c2c1cc(C(=O)NC1CCN(C(C)C)CC1)n2Cc1cc(-c2ccc(Cl)s2)on1` yielded a Ki of 1 nM.
